Target: T1, human vasopressin V2 receptor subtype (Homo sapiens, UniProt P30518)
T1 construct: host or cells: CHO cells (pZeoSV vector)
Assay: Vasopressin binding in Chinese Hamster Ovary cell membranes expressing human vasopressin V2 subtype receptors
Conditions: 100 nM, CHO cell membranes, [3H]arginine vasopressin, values without parentheses
Outline: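 Radioligand displacement on membranes from CHO cells stably expressing human V2 receptor, 25 to 50 μg protein/well, in 50 mM Tris-HCl pH 7.4 with MgCl2, BSA and protease inhibitors. [^3H]arginine vasopressin (8 nM working solution) incubated 60 min at room temperature; bound label measured by filtration and scintillation counting.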

T1 sequence (P30518 whole entry): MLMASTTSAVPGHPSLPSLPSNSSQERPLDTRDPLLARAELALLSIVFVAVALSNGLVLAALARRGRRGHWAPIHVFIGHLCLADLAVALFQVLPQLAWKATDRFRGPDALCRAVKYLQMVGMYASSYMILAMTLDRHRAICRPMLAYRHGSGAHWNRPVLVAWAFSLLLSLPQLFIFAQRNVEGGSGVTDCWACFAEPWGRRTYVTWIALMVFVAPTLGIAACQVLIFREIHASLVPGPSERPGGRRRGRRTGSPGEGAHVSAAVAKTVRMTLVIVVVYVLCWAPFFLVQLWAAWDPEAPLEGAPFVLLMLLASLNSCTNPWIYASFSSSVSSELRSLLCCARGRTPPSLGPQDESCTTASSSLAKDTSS

Structure (SMILES) | inhibition at 0.1 µM
COc1cccc(-c2cc(OC)c(C(=O)N3Cc4ccc(C(=O)N5CCN(CCN(C)C)CC5)n4Cc4ccccc43)cc2Cl)c1 [Example 202, {10-[(6-Chloro-3,3′-dimethoxy[1,1′-biphenyl]-4-yl)carbonyl]-10,11-dihydro-5H-pyrrolo[2,1-c][1,4]benzodiazepin-3-yl}{4-[2-(dimethylamino)ethyl]-1-piperazinyl}methanone] | 8%
C=CCN1CCN(C(=O)c2ccc3n2Cc2ccccc2N(C(=O)c2ccc(-c4cccc(OC)c4)c(C)c2)C3)CC1 [Example 223, (4-Allyl-1-piperazinyl){10-[(3′-methoxy-2-methyl[1,1′-biphenyl]-4-yl)carbonyl]-10,11-dihydro-5H-pyrrolo[2,1-c][1,4]benzodiazepin-3-yl}methanone] | 13%
COc1ccccc1-c1ccc(C(=O)N2Cc3ccc(C(=O)N4CCN(C(C)C)CC4)n3Cc3ccccc32)cc1OC [Example 241, {10-[(2,2′-Dimethoxy[1,1-biphenyl]4-yl)carbonyl]-10,11-dihydro-5H-pyrrolo[2,1-c][1,4]benzodiazepin-3-yl}(4-isopropyl-1-piperazinyl)methanone] | -17%
COc1ccccc1-c1ccc(C(=O)N2Cc3ccc(C(=O)N(C)C4CCN(C)CC4)n3Cc3ccccc32)cc1 [Example 177, 10-[(2′-Methoxy[1,1′-biphenyl]-4-yl)carbonyl]-N-methyl-N-(1-methyl-4-piperidinyl)-10,11-dihydro-5H-pyrrolo[2,1-c][1,4]benzodiazepine-3-carboxamide] | 18%
Cc1ccccc1-c1ccc(C(=O)N2Cc3ccc(C(=O)N(C)C4CCN(C)C4)n3Cc3ccccc32)cc1 (stereo not shown) [Example 188, N-Methyl-10-[(2′-methyl[1,1′-biphenyl]-4-yl)carbonyl]-N-(1-methyl-3-pyrrolidinyl)-10,11-dihydro-5H-pyrrolo[2,1-c][1,4]benzodiazepine-3-carboxamide] | 10%
COc1cc(C(=O)N2Cc3ccc(C(=O)N4CCN(CCN5CCOCC5)CC4)n3Cc3ccccc32)ccc1-c1ccccc1C [Example 210, {10-[(2-Methoxy-2′-methyl[1,1′-biphenyl]-4-yl)carbonyl]-10,11-dihydro-5H-pyrrolo[2,1-c][1,4]benzodiazepin-3-yl}{4-[2-(4-morpholinyl)ethyl]-1-piperazinyl}methanone] | 17%
O=C(c1ccc2n1Cc1ccccc1N(C(=O)c1ccc(-c3cccc4ccccc34)cc1Cl)C2)N1CCN(CCN2CCOCC2)CC1 [Example 215, {10-[2-Chloro-4-(1-naphthyl)benzoyl]-10,11-dihydro-5H-pyrrolo[2,1-c][1,4]benzodiazepin-3-yl}{4-[2-(4-morpholinyl)ethyl]-1-piperazinyl}methanone] | 22%
COc1ccccc1-c1ccc(C(=O)N2Cc3ccc(C(=O)N(C)C4CCN(C)C4)n3Cc3ccccc32)cc1OC (stereo not shown) [Example 193, 10-[(2,2′-Dimethoxy[1,1′-biphenyl]-4-yl)carbonyl]-N-methyl-N-(1-methyl-3-pyrrolidinyl)-10,11-dihydro-5H-pyrrolo[2,1-c][1,4]benzodiazepine-3-carboxamide] | 16%
COc1cc(-c2ccccc2C)c(Cl)cc1C(=O)N1Cc2ccc(C(=O)N3CCN(CCN4CCOCC4)CC3)n2Cc2ccccc21 [Example 217, {10-[(6-Chloro-3-methoxy-2′-methyl[1,1′-biphenyl]-4-yl)carbonyl]-10,11-dihydro-5H -pyrrolo[2,1-c][1,4]benzodiazepin-3-yl}{4-[2-(4-morpholinyl)ethyl]-1-piperazinyl}methanone] | 34%
C=CCN1CCN(C(=O)c2ccc3n2Cc2ccccc2N(C(=O)c2ccc(-c4ccccc4C)c(OC)c2)C3)CC1 [Example 225, (4-Allyl-1-piperazinyl){10-[(2-methoxy-2′-methyl[1,1′-biphenyl]-4-yl)carbonyl]-10,11-dihydro-5H-pyrrolo[2,1-c][1,4]benzodiazepin-3-yl}methanone] | -4%
COc1ccccc1-c1ccc(C(=O)N2Cc3ccc(C(=O)O)n3Cc3ccccc32)cc1C [Example 9, 10-[(2′-Methoxy-2-methyl-[1,1′-biphenyl]-4-yl)carbonyl]-10,11-dihydro-5H-pyrrolo[2,1-c][1,4]benzodiazepine-3-carboxylic acid] | 42%
Cc1ccccc1-c1ccc(C(=O)N2Cc3ccc(C(=O)N4CCN(CCN(C)C)CC4)n3Cc3ccccc32)cc1 [Example 200, {4-[2-(Dimethylamino)ethyl]-1-piperazinyl}{10-[(2′-methyl[1,1′-biphenyl]-4-yl)carbonyl]-10,11-dihydro-5H-pyrrolo[2,1-c][1,4]benzodiazepin-3-yl}methanone] | 10%
Cc1ccccc1-c1ccc(C(=O)N2Cc3ccc(C(=O)N4CCN(CCN(C)C)CC4)n3Cc3ccccc32)cc1C [Example 198, {4-[2-(Dimethylamino)ethyl]-1-piperazinyl}{10-[(2,2′-dimethyl[1,1′-biphenyl]-4-yl)carbonyl]-10,11-dihydro-5H-pyrrolo[2,1-c][1,4]benzodiazepin-3-yl}methanone] | 19%
COc1cc2c(cc1OC)N(C(=O)c1ccc(-c3ccccc3C(F)(F)F)c(C)c1)Cc1cccn1C2 [Example 12, 7,8-Dimethoxy-[10,11-dihydro-5H-pyrrolo[2,1-c][1,4]benzodiazepin-10-yl][2-methyl-2′-(trifluoromethyl)[1,1′-biphenyl]-4-yl]methanone] | -1%
COc1cc(C(=O)N2Cc3ccc(C(=O)N4CCN(C(C)C)CC4)n3Cc3ccccc32)ccc1-c1cccc2ccccc12 [Example 236, (4-Isopropyl-1-piperazinyl){10-[3-methoxy-4-(1-naphthyl)benzoyl]-10,11-dihydro-5H -pyrrolo[2,1-c][1,4]benzodiazepin-3-yl}methanone] | 5%
COc1cccc(-c2ccc(C(=O)N3Cc4ccc(C(=O)N5CCN(CCN6CCOCC6)CC5)n4Cc4ccccc43)cc2C)c1 [Example 208, {10-[(3′-Methoxy-2-methyl[1,1′-biphenyl]-4-yl)carbonyl]-10,11-dihydro-5H-pyrrolo[2,1-c][1,4]benzodiazepin-3-yl}{4-[2-(4-morpholinyl)ethyl]-1-piperazinyl}methanone] | 12%
COc1cc(C(=O)N2Cc3ccc(C(=O)N4CCN(CCN(C)C)CC4)n3Cc3ccccc32)ccc1-c1ccccc1C [Example 201, {4-[2-(Dimethylamino)ethyl]-1-piperazinyl}{10-[(2-methoxy-2′-methyl[1,1′-biphenyl]-4-yl)carbonyl]-10,11-dihydro-5H-pyrrolo[2,1-c][1,4]benzodiazepin-3-yl}methanone] | 19%

Now from value to compound:

inhibition at 0.1 µM | Structure (SMILES)
3% | Cc1ccccc1-c1ccc(C(=O)N2Cc3ccc(C(=O)NCCC4CCCN4C)n3Cc3ccccc32)cc1 (stereo not shown) [Example 166, 10-[(2′-Methyl[1,1′-biphenyl]-4-yl)carbonyl]-N-[2-(1-methyl-2-pyrrolidinyl)ethyl]-10,11-dihydro-5H-pyrrolo[2,1-c][1,4]benzodiazepine-3-carboxamide]
4% | Cc1cc(C(=O)N2Cc3ccc(C(=O)NCCN4CCCCC4)n3Cc3ccccc32)ccc1-c1ccccc1C(F)(F)F [Example 161, 10-{[2-Methyl-2′-(trifluoromethyl)[1,1′-biphenyl]-4-yl]carbonyl}-N-[2-(1-piperidinyl)ethyl]-10,11-dihydro-5H-pyrrolo[2,1-c][1,4]benzodiazepine-3-carboxamide]
20% | COc1cc(C(=O)N2Cc3ccc(C(=O)NCCC4CCCN4C)n3Cc3ccccc32)ccc1-c1ccccc1C (stereo not shown) [Example 167, 10-[(2-Methoxy-2′-methyl[1,1′-biphenyl]-4-yl)carbonyl]-N-[2-(1-methyl-2-pyrrolidinyl)ethyl]-10,11-dihydro-5H-pyrrolo[2,1-c][1,4]benzodiazepine-3-carboxamide]
14% | COc1ccccc1-c1ccc(C(=O)N2Cc3ccc(C(=O)NCCC4CCCN4C)n3Cc3ccccc32)cc1OC (stereo not shown) [Example 171, 10-[(2,2′-Dimethoxy[1,1′-biphenyl]-4-yl)carbonyl]-N-[2-(1-methyl-2-pyrrolidinyl)ethyl]-10,11-dihydro-5H-pyrrolo[2,1-c][1,4]benzodiazepine-3-carboxamide]
25% | COc1ccccc1-c1ccc(C(=O)N2Cc3ccc(C(=O)NCCC4CCCN4C)n3Cc3ccccc32)cc1 (stereo not shown) [Example 165, 10-[(2′-Methoxy[1,1′-biphenyl]-4-yl)carbonyl]-N-[2-(1-methyl-2-pyrrolidinyl)ethyl]-10,11-dihydro-5H-pyrrolo[2,1-c][1,4]benzodiazepine-3-carboxamide]
7% | Cc1cc(C(=O)N2Cc3ccc(C(=O)NCCC4CCCN4C)n3Cc3ccccc32)ccc1-c1ccccc1C(F)(F)F (stereo not shown) [Example 174, N-[2-(1-Methyl-2-pyrrolidinyl)ethyl]-10-{[2-methyl-2′-(trifluoromethyl)[1,1′-biphenyl]-4-yl]carbonyl}-10,11-dihydro-5H-pyrrolo[2,1-c][1,4]benzodiazepine-3-carboxamide]
0% | Cc1cc(C(=O)N2Cc3ccc(C(=O)N(C)C4CCN(C)C4)n3Cc3ccccc32)ccc1-c1ccccc1C(F)(F)F (stereo not shown) [Example 194, N-Methyl-N-(1-methyl-3-pyrrolidinyl)-10-{[2-methyl-2′-(trifluoromethyl)[1,1′-biphenyl]-4-yl]carbonyl}-10,11-dihydro-5H-pyrrolo[2,1-c][1,4]benzodiazepine-3-carboxamide]
9% | Cc1cc(C(=O)N2Cc3ccc(C(=O)N4CCN(C(C)C)CC4)n3Cc3ccccc32)ccc1-c1ccccc1C(F)(F)F [Example 240, (4-Isopropyl-1-piperazinyl)(10-{[2-methyl-2′-(trifluoromethyl)[1,1′-biphenyl]-4-yl]carbonyl}-10,11-dihydro-5H-pyrrolo[2,1-c][1,4]benzodiazepin-3-yl)methanone]

Reference: patent US7109193B2, “Tricyclic diazepines tocolytic oxytocin receptor antagonists” (Wyeth, priority 2001, dated 2006)
